# Data published in patent US20070197509A1, “Compositions and methods for modulating gated ion channels” (PainCeptor Pharma Corporation, priority 2005, published 2007).
# Tests used:
# hASIC1a [1] = biological target: T1, hASIC1a (Homo sapiens, UniProt P78348); experiment: Two-electrode voltage clamp in Xenopus laevis oocytes expressing hASIC1a (OpusExpress); format: cell-based; parameters: expressed in transfected cells; host or cells: Xenopus laevis oocytes, nuclear microinjection of cDNA (e.g. in pCDNA3)
# T1 sequence (P78348 1-528): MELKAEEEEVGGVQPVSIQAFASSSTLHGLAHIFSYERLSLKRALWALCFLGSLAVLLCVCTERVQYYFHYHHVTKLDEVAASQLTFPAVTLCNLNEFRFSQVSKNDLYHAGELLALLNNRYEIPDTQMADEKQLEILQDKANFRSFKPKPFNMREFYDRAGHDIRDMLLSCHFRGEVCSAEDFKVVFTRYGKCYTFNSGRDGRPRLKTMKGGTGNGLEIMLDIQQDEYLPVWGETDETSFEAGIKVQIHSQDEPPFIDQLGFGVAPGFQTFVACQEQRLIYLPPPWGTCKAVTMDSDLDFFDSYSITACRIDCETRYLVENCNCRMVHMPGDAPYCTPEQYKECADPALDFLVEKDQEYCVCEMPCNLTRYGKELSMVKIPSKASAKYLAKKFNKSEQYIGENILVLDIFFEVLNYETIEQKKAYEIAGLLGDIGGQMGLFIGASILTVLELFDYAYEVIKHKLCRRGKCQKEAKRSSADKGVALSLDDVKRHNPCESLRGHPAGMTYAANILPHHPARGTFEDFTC
# Experimental: Two-electrode voltage clamp electrophysiological assays in Xenopus laevis oocytes expressing gated ion channels are performed as follows:
# Oocytes are surgically removed from adult Xenopus laevis and treated for 2 h at room temperature with 1 mg/ml type I collagenase (Sigma) in Barth's solution under mild agitation. Selected oocytes at stage IV-V are defolliculated manually before nuclear microinjection of 2.5-5 ng of a suitable expression vector, such as pCDNA3, comprising the nucleotide sequence encoding a gated ion channel subunit protein. In such an experiment, the oocytes express homomultimeric proton-gated ion channels on their surface. In an alternate experiment, one, two, three or more vectors comprising the coding sequences for distinct gated ion channel subunits are co-injected in the oocyte nuclei. In the latter case, oocytes express heteromultimeric proton-gated ion channels. […] Once impaled with the microelectrodes, oocytes are continuously superfused at 10-12 ml/min with a modified Ringer's solution containing 97 mM NaCl, 2 mM KCl, 1.8 mM CaCl2, and 10 mM HEPES brought to pH 7.4 with NaOH (Control Ringer). Test Ringer solution is prepared by replacing HEPES with MES and adjusting the pH to the desired acidic value. Compounds of the present invention are prepared in both the Control and Test Ringer solutions and applied to oocytes at room temperature through a computer-controlled switching valve system. […] Similarly, recordings can also be acquired in an automated multichannel oocytes system as the OpusExpress™ (Molecular Devices, Sunnyvale, Calif., USA).
# Recordings were acquired from oocytes expressing homomeric hASIC1a using a two-electrode voltage-clamp configuration procedure as described herein.
# hASIC3 = biological target: T2, hASIC3 (Homo sapiens, UniProt Q9UHC3); experiment: FlexStation assay on HEK293 cells expressing hASIC3; format: cell-based; parameters: expressed in transfected cells; host or cells: HEK293 cells; conditions: for IC50: FlexStation (Flex), Tables A-F, read-out: Biological Data (IC50 uM) h3 (Flex); for EC50: Table H, cells marked (h3), HEK293, read-out: EC50 (μM) Flex/FLIPR (h3)
# T2 sequence (Q9UHC3 1-531): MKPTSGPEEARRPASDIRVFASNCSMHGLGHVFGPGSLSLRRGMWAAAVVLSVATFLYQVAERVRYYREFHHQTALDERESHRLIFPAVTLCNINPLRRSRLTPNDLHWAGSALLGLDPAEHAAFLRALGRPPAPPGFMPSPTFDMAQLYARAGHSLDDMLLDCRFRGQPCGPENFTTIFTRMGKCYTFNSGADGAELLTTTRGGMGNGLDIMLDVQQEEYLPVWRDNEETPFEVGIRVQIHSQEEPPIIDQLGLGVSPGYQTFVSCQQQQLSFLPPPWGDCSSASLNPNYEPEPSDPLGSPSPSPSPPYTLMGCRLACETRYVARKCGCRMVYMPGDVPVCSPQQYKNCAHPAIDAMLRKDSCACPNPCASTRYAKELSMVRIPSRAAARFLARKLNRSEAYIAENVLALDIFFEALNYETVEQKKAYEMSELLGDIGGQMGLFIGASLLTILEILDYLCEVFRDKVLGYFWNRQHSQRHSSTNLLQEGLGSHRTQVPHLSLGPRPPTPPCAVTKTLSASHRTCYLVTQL
# Experimental: A vial of FMP dye (Molecular Devices) is resuspended in 10.5 ml of assay buffer (48.3 mM NaCl, 93 mM NMDG, 5 mM KCl, 5 mM CaCl2, 1 mM MgCl2, 10 mM HEPES, pH 7.4). The culture medium is aspirated from the wells, and 100 μl of the FMP loading solution is added to each well. The cells are incubated at 37° C. for 30 min.
# After the loading period, the loading solution is left on the cells and the membrane potential-induced fluorescence is measured in FLIPR™ or FlexStation™ (Molecular Devices, USA), or any other suitable equipment known to the skilled in the art.
# For cells co-expressing ASIC1a and ASIC3 channels (e.g. HEK293 cells), membrane potential dye (FMP dye) is used and the FlexStation settings are as above.
# (§1) The MES-induced peak calcium response (or change in membrane potential), in the presence of test substance, is expressed relative to the MES response alone. Test substances that block the MES-induced calcium response (or change in membrane potential) are re-tested in triplicates. Confirmed hits are picked for further characterization by performing full dose-response curves to determine potency of each hit compound as represented by the IC50 values (i.e., the concentration of the test substance which inhibits 50% of the MES-induced calcium and/or membrane potentiation response; see, for example, FIG. 1).
# (§2) The data shown in Table H was acquired using the FlexStation assay described in Example 1 on HEK293 cells expressing hASIC3 (h3) and/or hASIC1a (h1a).
# hASIC1a [2] = biological target: T1, hASIC1a; experiment: Whole-cell patch clamp of acid-induced currents in cells transfected with hASIC1a; format: cell-based; parameters: expressed in transfected cells; conditions: patch clamp (PC), Tables A-F, h1a printed in some cells only
# Experimental: Another example of an in vitro assessment method consists of using mammalian heterologous expression systems, which are known to those skilled in the art, and include a variety of mammalian cell lines such as COS, HEK, e.g., HEK293 and/or CHO, cells. Cell lines are transfected with gated ion channel(s) and used to perform electrophysiology as follows:
# All experiments are performed at room temperature (20-25° C.) in voltage clamp using conventional whole cell patch clamp methods (Neher, E., et al. (1978) Pfluegers Arch 375:219-228).
# The amplifier used is the EPC-9 (HEKA-electronics, Lambrect, Germany) run by a Macintosh G3 computer via an ITC-16 interface. Experimental conditions are set with the Pulse-software accompanying the amplifier. Data is low pass filtered and sampled directly to hard-disk at a rate of 3 times the cut-off frequency.
# Pipettes are pulled from borosilicate glass using a horizontal electrode puller (Zeitz-lnstrumente, Augsburg, Germany). The pipette resistances are 2-3 MOhms in the salt solutions used in these experiments. The pipette electrode is a chloridized silver wire, and the reference is a silver chloride pellet electrode (In Vivo Metric, Healdsburg, USA) fixed to the experimental chamber. The electrodes are zeroed with the open pipette in the bath just prior to sealing.
# Coverslips with the cells are transferred to a 15 μl experimental chamber mounted on the stage of an inverted microscope (IMT-2, Olympus) supplied with Nomarski optics. Cells are continuously superfused with extracellular saline at a rate of 2.5 ml/min. After giga-seal formation, the whole cell configuration is attained by suction. The cells are held at a holding voltage of −60 mV and at the start of each experiment the current is continuously measured for 45 s to ensure a stable baseline. Solutions of low pH (<7) are delivered to the chamber through a custom-made gravity-driven flowpipe, the tip of which is placed approximately 50 μm from the cell. Application is triggered when the tubing connected to the flowpipe is compressed by a valve controlled by the Pulse-software. Initially, low pH (in general, pH 6.5) is applied for 5 s every 60 s. The sample interval during application is 550 μs. After stable responses are obtained, the extracellular saline as well as the low-pH solution are switched to solutions containing the compound to be tested. The compound is present until responses of repeatable amplitude are achieved. Current amplitudes are measured at the peak of the responses, and effect of the compounds is calculated as the amplitude at compound equilibrium divided by the amplitude of the current evoked by the pulse just before the compound was included.
# The following salt solutions are used: extracellular solution (mM): NaCl (140), KCl (4), CaCl2 (2), MgCl2 (4), HEPES (10, pH 7.4); intracellular solution (mM): KCl (120), KOH (31), MgCl2 (1.785), EGTA (10), HEPES (10, pH 7.2). In general, compounds for testing are dissolved in 50% DMSO at 500 fold the highest concentration used.
# CHO cells were transfected with hASIC1a and used to perform full dose-inhibition curves with Compound B, and Compound R. Results are expressed as a fraction of the control peak current obtained in the absence of the test substance.
# [3] = system: T3, hASIC3 (h3) and/or hASIC1a (h1a); experiment: FlexStation/FLIPR assay, channel not marked in the cell; format: cell-based, human; conditions: Table H, cells without channel mark; HEK293; read-out: EC50 (μM) Flex/FLIPR
# T3 construct: EC50 (μM) in one experiment; HEK293
# Source text: as §1, §2
# [4] = OpusExpress (OX), Tables A-F, h1a printed in some cells only, read-out: Biological Data (IC50 uM) h1a (OX)
# [5] = OpusExpress (OX), Tables A-F, h1a printed in some cells only
# [6] = Table H, read-out: IC50 (μM) Opus Express (h1a)
compound,measurement,setting,value
"O=C(O)c1cc(-c2ccc(Cl)cc2)nc2ccc(Cl)cc12 [Compound 36, 6-chloro-2-(4-chloro-phenyl)-quinoline-4-carboxylic acid]",IC50,hASIC1a [1]; [4],> 50 µM
same,IC50,hASIC3,15 to 25 µM
"COc1ccc(-c2cc(C(=O)O)c3cc(Cl)ccc3n2)c(O)c1 [Compound 37, 6-chloro-2-(2-hydroxy-4-methoxy-phenyl)-acid]",IC50,hASIC3,10 to 20 µM
"COc1ccc(N2CCN(C(=O)c3cc(-c4ccc(OC)c(OC)c4)nc4ccccc34)CC2)cc1 [Compound 41, [2-(3,4-dimethoxy-phenyl)-quinolin-4-yl]-[4-(4-methoxy-phenyl)-piperazin-1-yl]-methanone]",Biological Data (IC50 uM) h1a (OX),hASIC1a [1]; [5],"Not Active (OX, PC)"
same,Biological Data (IC50 uM) h1a (PC),hASIC1a [2],"Not Active (OX, PC)"
"COc1ccc(-c2cc(C(=O)N3CCN(Cc4ccc5c(c4)OCO5)CC3)c3cc(Cl)ccc3n2)cc1 [Compound 44, (4-benzo[1,3]dioxol-5-ylmethyl-piperazin-1-yl)-[6-chloro-2-(4-methoxy-phenyl)-quinolin-4-yl]-methanone]",Biological Data (IC50 uM) h1a (OX),hASIC1a [1]; [5],"Not Active (OX, PC)"
same,Biological Data (IC50 uM) h1a (PC),hASIC1a [2],"Not Active (OX, PC)"
"Cc1ccc(-c2nc(Nc3ccc(C(=O)O)cc3)c3cc(Cl)ccc3n2)cc1 [Compound 107, 4-(6-chloro-2-p-tolyl-quinazolin-4-ylamino)-benzoic acid]",IC50,hASIC3,20 to 30 µM
same,IC50,hASIC1a [2]; read-out: Biological Data (IC50 uM) h1a (PC),> 30 µM
"COc1ccc(CN2CCC(Oc3cc(C)nc4ccccc34)CC2)cc1 [Compound 112, 4-[1-(4-Methoxy-benzyl)-piperidin-4-yloxy]-2-methyl-quinoline]",IC50,hASIC1a [1]; [4],15 to 25 µM
"C=CCOC(=O)N1CCC(Oc2cc(C)nc3ccccc23)CC1 [Compound 113, 4-(2-methyl-quinolin-4-yloxy)-piperidine-1-carboxylic acid allyl ester]",IC50,hASIC1a [1]; [4],> 30 µM
same,IC50,hASIC1a [1]; [6],17.1 µM
"COc1ccc(-c2cc(C(=O)N3CCN(C)CC3)c3ccccc3n2)cc1OC [Compound G, [2-(3,4-dimethoxy-phenyl)-quinolin-4-yl]-(4-methyl-piperazin-1-yl)-methanone]",EC50,[3],> 20 µM
"CN1CCN(c2nc(-c3ccccc3F)nc3ccccc23)CC1 [Compound L, 2-(2-fluoro-phenyl)-4-(4-methyl-piperazin-1-yl)-quinazoline]",IC50,hASIC3,5 to 15 µM
same,EC50,hASIC3,> 10 µM
"Cc1cc(N2CCNCC2)c2ccccc2n1 [Compound M, 2-methyl-4-piperazin-1-yl-quinoline]",Biological Data (IC50 uM) h1a (OX),hASIC1a [1]; [5],inactive
same,IC50 (μM) Opus Express (h1a),hASIC1a [1]; Table H,Inactive
same,IC50,hASIC3,5 to 15 µM
same,EC50,hASIC3,> 10 µM
"Cc1cc(N2CCN(C(=O)OCc3ccccc3)CC2)c2ccccc2n1 [Compound N, 4-(2-methyl-quinolin-4-yl)-piperazine-1-carboxylic acid benzyl ester]",IC50 (μM) Opus Express (h1a),hASIC1a [1]; Table H,Inactive
same,EC50,hASIC3,> 20 µM
Cc1cc(N2CCN(Cc3ccc4c(c3)OCO4)CC2)c2ccccc2n1 [Compound P],IC50,hASIC1a [1]; [6],> 50 µM
same,IC50,hASIC3,10 to 20 µM
same,EC50,hASIC3,> 10 µM
"FC(F)(F)c1ccc2c(OC3CCN(Cc4ccccc4)CC3)ccnc2c1 [Compound S, 4-(1-benzyl-piperidin-4-yloxy)-7-trifluoromethyl-quinoline]",IC50,hASIC3,25 to 35 µM
same,EC50,hASIC3,> 20 µM
"Cc1ccc(-c2nc(Nc3cccc(C(=O)O)c3)c3ccccc3n2)cc1 [Compound T, 3-(2-p-tolyl-quinazolin-4-ylamino)-benzoic acid]",EC50,hASIC3,> 20 µM
